According to PMC9698773, “Design, Synthesis, Molecular Modeling, and Anticancer Evaluation of New VEGFR-2 Inhibitors Based on the Indolin-2-One Scaffold” (Pharmaceuticals, 2022):
Several values for one entry are separate records, joined by “and”; a condition that tells them apart may be missing. Equal values may be shown once.

How the values were obtained:
[1] = test system: caspase-3; assay: Caspase-3 expression assay (quantitative real-time PCR); format: cell-based, human; conditions: HepG2, 1.13 µM, 24 h; control = 1
Procedure: (§1) The gene expression fold change of caspase-3 and -9 in the HepG2 cells treated with 1.13 µM of compound 17a for 24 h was determined using quantitative real-time PCR analysis.
(§2) The expression of caspase-3 and -9 in the liver HepG2 cells treated with 1.13 μM of 17a was determined using quantitative real-time PCR analysis, as presented in the Supplementary Materials.
(§3) Pharmaceuticals 2022, 15, x FOR PEER REVIEW 3 of 22
(§4) Figure S1. Simple linear regression for the correlation between cytotoxicity against HepG2 cell line […]
(§5) Figure S2. Simple linear regression for the correlation between cytotoxicity against MCF‐7 cell line […]
(§6) 4.2.3. Cell cycle analysis
(§7) To determine the role of the synthesized compounds in cell cycle distribution, cell cycle analysis was performed using propidium iodide (PI) staining and flow cytometry analysis for compound 17a. […] The stained cells were measured using a BD FACSCalibur™ Flow Cytometer, and the data were analyzed using Flowing software (version 2.5.1, Turku Centre for Biotech‐ […]
(§8) Flow cytometry cell apoptosis analysis was used to investigate the apoptotic effect of the synthesized compounds. […] The stained cells were measured using a BD FACSCalibur™ Flow Cytometer and analyzed using Flowing software. […]
(§9) The expression of BAX and Bcl‐2 proteins were determined using Western blot anal‐ ysis. […]

[2] = test system: caspase-9; assay: Caspase-9 expression assay (quantitative real-time PCR); format: cell-based, human; conditions: HepG2, 1.13 µM, 24 h; control = 1
Procedure: as §1, §2, §3, §4, §5, §6, §7, §8, §9

[3] = target: VEGFR-2 (Homo sapiens, UniProt P35968); assay: In vitro VEGFR-2 kinase inhibitory assay (VEGFR2 (KDR) Kinase Assay Kit)
VEGFR-2, sequence (P35968 20-1356): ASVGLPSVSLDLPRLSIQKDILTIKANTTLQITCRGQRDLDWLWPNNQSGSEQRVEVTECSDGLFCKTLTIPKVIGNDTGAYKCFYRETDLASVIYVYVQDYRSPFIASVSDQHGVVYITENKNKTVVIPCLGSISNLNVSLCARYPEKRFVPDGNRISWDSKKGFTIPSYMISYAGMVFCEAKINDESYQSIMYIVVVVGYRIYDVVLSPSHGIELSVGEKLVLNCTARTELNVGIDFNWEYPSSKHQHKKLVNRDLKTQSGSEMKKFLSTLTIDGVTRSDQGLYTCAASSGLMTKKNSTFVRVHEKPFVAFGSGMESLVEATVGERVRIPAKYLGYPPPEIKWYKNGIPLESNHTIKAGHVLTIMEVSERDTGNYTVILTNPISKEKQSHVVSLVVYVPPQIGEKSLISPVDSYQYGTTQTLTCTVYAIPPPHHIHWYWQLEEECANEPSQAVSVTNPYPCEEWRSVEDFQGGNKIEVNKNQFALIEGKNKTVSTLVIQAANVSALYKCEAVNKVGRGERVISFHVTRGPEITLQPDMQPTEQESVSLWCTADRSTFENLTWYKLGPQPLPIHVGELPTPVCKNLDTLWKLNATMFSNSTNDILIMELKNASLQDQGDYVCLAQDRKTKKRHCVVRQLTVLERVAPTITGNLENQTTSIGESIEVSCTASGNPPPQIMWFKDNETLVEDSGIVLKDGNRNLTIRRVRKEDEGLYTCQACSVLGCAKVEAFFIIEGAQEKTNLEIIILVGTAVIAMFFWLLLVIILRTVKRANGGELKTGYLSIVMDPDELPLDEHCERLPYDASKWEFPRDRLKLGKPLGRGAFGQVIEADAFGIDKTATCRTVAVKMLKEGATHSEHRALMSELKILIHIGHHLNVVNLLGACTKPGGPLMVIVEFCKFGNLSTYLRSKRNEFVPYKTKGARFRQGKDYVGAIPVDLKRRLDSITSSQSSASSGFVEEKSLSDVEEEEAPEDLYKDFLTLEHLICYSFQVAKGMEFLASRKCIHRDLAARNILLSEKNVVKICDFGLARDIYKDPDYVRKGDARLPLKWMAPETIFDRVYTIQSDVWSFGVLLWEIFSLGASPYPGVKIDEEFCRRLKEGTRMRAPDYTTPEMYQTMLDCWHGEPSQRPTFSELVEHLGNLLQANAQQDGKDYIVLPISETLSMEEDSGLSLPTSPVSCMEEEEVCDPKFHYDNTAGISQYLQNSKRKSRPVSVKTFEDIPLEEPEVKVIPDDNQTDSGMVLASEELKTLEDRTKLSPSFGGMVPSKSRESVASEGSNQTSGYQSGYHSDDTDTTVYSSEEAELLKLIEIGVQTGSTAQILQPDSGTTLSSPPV
Procedure: In vitro VEGFR‐2 kinase inhibitory assay
for their inhibitory activity against VEGFR‐2. Human BPS bioscience® VEGFR2 (KDR) Ki‐ nase Assay Kit (Enzyme‐Linked Immunosorbent Assay) was utilized in this test. The lu‐ minescent signal from the assay is correlated with the amount of ATP present and is in‐ versely correlated with the amount of kinase activity. The compounds were diluted to 100 μM in 10% DMSO and 5 ml of the diluted solution was added to a 50 ml reaction so that the final concentration of DMSO was 1% in all of reactions. All of the enzymatic reactions were conducted at 30 °C for 40 min. The 50 μl reaction mixture contains 40 μM Tris, pH 7.4, 10 μM MgCl2, 0.1 mg/ml BSA, 0.2 mg/ml Poly (Glu, Tyr) substrate, 10 μM ATP, and VEGFR‐2. After the enzymatic reaction, 50 ml of Kinase‐GloPlus Luminescence kinase as‐ say solution (Promega) was added to each reaction and the plate was incubated for 5 min at room temperature. Luminescence signal was measured using a BioTek Synergy 2 mi‐ croplate reader. The protein kinase assays used to determine IC50 values were performed using a ADP‐GloTM assay kit from Promega, which measures the generation of ADP by the protein kinase. Generation of ADP by the protein kinase reaction leads to an increase in luminescence signal in the presence of the ADP‐GloTM assay kit. The assay was started by incubating the reaction mixture in a 96‐well plate at 30 °C for 30 min. After the 30 mi n incubation period, the assay was terminated by the addition of 25 ml of ADP‐GloTM Re‐ agent (Promega). The 96‐well plate was shaken and then incubated for 40 min at ambient temperature; 50 ml of Kinase detection reagent was added, the 96‐well reaction plate wa s then read using the ADP‐Glo Luminescences Protocol on a GloMax plate reader (Promega: Catalog #E7031). The blank control was set up which included all the assay components, except the addition of appropriate substrates (replaced with equal volume of kinase assay buffer). The corrected activity for each protein kinase target was deter‐ mined by removing the blank control value. IC50 determination for inhibitor against VEGFR‐2 was estimated by generating a graph of log inhibitor vs normalized response with variables.

O=C1Nc2ccccc2C1=Nc1ccc(C(=O)NNC(=S)Nc2ccccc2)cc1 [Compound 17a, 2-(4-((2-Oxoindolin-3-ylidene)amino)benzoyl)-N-phenylhydrazinecarbothioamide]
Gene Expression Fold Change (Normalized to β-Actin) Caspases-3 [1]: 6.88 fold and 6.9 fold and 6.889 fold | Gene Expression Fold Change (Normalized to β-Actin) Caspases-9 [2]: 3.7 fold and 3.703 fold | IC50 [3]: 0.078 ± 0.003 µM | fold more potent than sunitinib, VEGFR-2 inhibition ([3]; ratio of IC50 to sunitinib): 1.78 fold
